Data set [1] concerns the target T1, AtGPRAT2 (Arabidopsis thaliana, UniProt Q9STG9).
T1 construct: gene ASE2; residues 75-561 without predicted chloroplast transit peptide, C-terminal His tag (pET22b), E. coli BL21; propeptide autocatalytically removed, first visible residue Cys87 (87-546 visible); 4Fe-4S cluster; homo-tetramer in crystal
T1 sequence (Q9STG9 87-561): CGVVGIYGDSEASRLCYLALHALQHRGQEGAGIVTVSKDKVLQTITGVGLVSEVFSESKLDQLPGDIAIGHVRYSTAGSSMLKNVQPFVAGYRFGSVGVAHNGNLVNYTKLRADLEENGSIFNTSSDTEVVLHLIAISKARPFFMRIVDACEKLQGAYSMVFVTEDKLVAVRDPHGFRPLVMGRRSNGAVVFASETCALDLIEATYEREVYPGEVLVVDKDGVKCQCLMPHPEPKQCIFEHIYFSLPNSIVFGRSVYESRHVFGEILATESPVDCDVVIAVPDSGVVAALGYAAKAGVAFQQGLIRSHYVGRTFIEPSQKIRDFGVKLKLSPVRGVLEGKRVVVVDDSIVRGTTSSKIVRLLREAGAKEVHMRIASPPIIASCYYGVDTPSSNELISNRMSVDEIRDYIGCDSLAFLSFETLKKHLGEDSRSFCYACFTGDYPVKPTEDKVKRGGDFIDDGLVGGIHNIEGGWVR
Put plainly: isothermal titration calorimetry, single site model. The data set is classed as binding. The source says:
isothermal titration calorimetry, single site model on AtGPRAT2 | isothermal titration calorimetry (ITC) assay with wildtype, R264K and Y329A mutants of AtGPRAT2

Data set [2] concerns the target T2, AtGPRAT2 (Arabidopsis thaliana, UniProt Q9STG9, Y329A).
T2 construct: gene ASE2; residues 75-561 without predicted chloroplast transit peptide, C-terminal His tag (pET22b), E. coli BL21; propeptide autocatalytically removed, first visible residue Cys87 (87-546 visible); 4Fe-4S cluster; homo-tetramer in crystal
T2 sequence (Q9STG9 87-561 Y329A): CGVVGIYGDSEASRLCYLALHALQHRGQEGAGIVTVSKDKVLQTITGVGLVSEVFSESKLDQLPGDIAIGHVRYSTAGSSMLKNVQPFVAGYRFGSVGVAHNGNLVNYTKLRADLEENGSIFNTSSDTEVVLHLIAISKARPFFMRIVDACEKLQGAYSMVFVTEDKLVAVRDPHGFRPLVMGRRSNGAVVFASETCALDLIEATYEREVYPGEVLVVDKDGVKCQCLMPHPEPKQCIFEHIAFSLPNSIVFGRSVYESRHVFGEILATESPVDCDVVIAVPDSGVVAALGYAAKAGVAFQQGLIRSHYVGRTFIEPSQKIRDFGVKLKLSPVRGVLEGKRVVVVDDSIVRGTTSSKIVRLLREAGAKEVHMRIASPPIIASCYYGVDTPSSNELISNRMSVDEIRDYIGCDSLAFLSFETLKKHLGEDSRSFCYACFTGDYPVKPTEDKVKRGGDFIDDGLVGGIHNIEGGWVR
The data set is described as above. In kind it is binding.

The target in data set [3] is T1, AtGPRAT2. Briefly: coupled glutamate dehydrogenase assay, NADH at […] nm, mixed inhibition model. In kind it is biochemical.
In data set [4] the target is T3, AtGPRAT2 (Arabidopsis thaliana, UniProt Q9STG9, R264K).
T3 construct: gene ASE2; residues 75-561 without predicted chloroplast transit peptide, C-terminal His tag (pET22b), E. coli BL21; propeptide autocatalytically removed, first visible residue Cys87 (87-546 visible); 4Fe-4S cluster; homo-tetramer in crystal
T3 sequence (Q9STG9 87-561 R264K): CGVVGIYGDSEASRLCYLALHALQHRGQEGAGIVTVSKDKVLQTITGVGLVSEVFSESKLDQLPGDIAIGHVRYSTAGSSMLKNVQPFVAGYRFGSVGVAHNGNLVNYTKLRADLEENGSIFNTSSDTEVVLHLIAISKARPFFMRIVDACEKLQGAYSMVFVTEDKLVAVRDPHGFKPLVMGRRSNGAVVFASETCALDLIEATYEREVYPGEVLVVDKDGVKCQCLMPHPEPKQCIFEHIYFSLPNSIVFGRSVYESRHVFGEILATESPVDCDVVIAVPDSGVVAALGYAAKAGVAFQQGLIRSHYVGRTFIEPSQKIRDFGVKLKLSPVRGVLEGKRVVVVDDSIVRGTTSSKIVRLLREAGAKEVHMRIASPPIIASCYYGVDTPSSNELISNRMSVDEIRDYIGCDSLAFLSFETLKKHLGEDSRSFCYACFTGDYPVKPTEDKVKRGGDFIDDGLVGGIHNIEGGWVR
Briefly: isothermal titration calorimetry, single site model. The data set is classed as binding. The conditions noted are these: 20 mM HEPES pH 7.5, 200 mM NaCl, 25 °C; stated gain.

Substrate in the data set “purified protein”: O=P(O)(O)OC[C@H]1O[C@H](OP(=O)(O)OP(=O)(O)O)[C@H](O)[C@@H]1O
Put plainly: purified protein. In kind it is biochemical, Arabidopsis thaliana. The conditions noted are these: 10 mM Gln, 37.5 mM NAD+, 110 mM potassium phosphate pH 8.0, no inhibitor.

Data set [5] concerns the molecule itself. Briefly: crystal structure; sitting-drop vapor diffusion at 291 K; 0.1 M sodium citrate tribasic pH 5.6, 1.5 M ammonium phosphate monobasic, 0.1 M citric acid pH 3.4; space group P3121, two molecules in the asymmetric unit; tetramer assigned with the PISA server.

On to `CC(C)n1nc(CC(=O)O)nc1-c1ccc(Cl)cc1` [DAS734, [5-(4-chlorophenyl)-1-isopropyl-1H-[1,2,4]triazol-3-yl]-acetic acid], for which the Kd on AtGPRAT2 [1] came to 0.165 ± 0.0158 µM; at AtGPRAT2 [2] it was 1.75 ± 0.0384 µM. This molecule had an inhibition constant Ki on AtGPRAT2 [3] of 5.29 µM. On AtGPRAT2 [4], the binding abolished result is on record as “the R264K mutation abolished the binding of DAS734 to AtGPRAT2”.

B1: Arabidopsis thaliana chloroplastic glutamine phosphoribosylpyrophosphate amidotransferase 2, AtGPRAT2^75-561 (enzyme, UniProt Q9STG9 75-561, looked up)
chain: CGVVGIYGDSEASRLCYLALHALQHRGQEGAGIVTVSKDKVLQTITGVGLVSEVFSESKLDQLPGDIAIGHVRYSTAGSSMLKNVQPFVAGYRFGSVGVAHNGNLVNYTKLRADLEENGSIFNTSSDTEVVLHLIAISKARPFFMRIVDACEKLQGAYSMVFVTEDKLVAVRDPHGFRPLVMGRRSNGAVVFASETCALDLIEATYEREVYPGEVLVVDKDGVKCQCLMPHPEPKQCIFEHIYFSLPNSIVFGRSVYESRHVFGEILATESPVDCDVVIAVPDSGVVAALGYAAKAGVAFQQGLIRSHYVGRTFIEPSQKIRDFGVKLKLSPVRGVLEGKRVVVVDDSIVRGTTSSKIVRLLREAGAKEVHMRIASPPIIASCYYGVDTPSSNELISNRMSVDEIRDYIGCDSLAFLSFETLKKHLGEDSRSFCYACFTGDYPVKPTEDKVKRGGDFIDDGLVGGIHNIEGGWVR
notes: AtGPRAT2 (At4g34740), Arabidopsis thaliana, residues 75-561, without the predicted chloroplast transit peptide; Each protomer carries a 4Fe-4S cofactor; also called GPRATase
As to B1, the Km in “purified protein” was determined as 350 µM. The “stoichiometry N” value in data set [5] worked out at 4.

The values are drawn from PMC7056826, “Crystal Structure of the Chloroplastic Glutamine Phosphoribosylpyrophosphate Amidotransferase GPRAT2 From Arabidopsis thaliana” (Frontiers in Plant Science, 2020).
